The text below walks through data of patent US6071917A, “N-benzenesulphonyl-L-proline derivatives as bradykinin B2 antagonists” (Fournier Industrie Et Sante, priority 1996, dated 2000).

Counter-ions that a name gives are not always drawn.

The test concerns the target T1, guinea-pig B2 receptor (Cavia porcellus, UniProt O70526).
T1 construct: Ileum segments are isolated from male guinea-pigs; tissue Iffa Credo, l'Arbresle, France (supplier of the animals); host or cells: ileum membranes of male Dunkin-Hartley guinea-pigs
T1 sequence (O70526 1-372): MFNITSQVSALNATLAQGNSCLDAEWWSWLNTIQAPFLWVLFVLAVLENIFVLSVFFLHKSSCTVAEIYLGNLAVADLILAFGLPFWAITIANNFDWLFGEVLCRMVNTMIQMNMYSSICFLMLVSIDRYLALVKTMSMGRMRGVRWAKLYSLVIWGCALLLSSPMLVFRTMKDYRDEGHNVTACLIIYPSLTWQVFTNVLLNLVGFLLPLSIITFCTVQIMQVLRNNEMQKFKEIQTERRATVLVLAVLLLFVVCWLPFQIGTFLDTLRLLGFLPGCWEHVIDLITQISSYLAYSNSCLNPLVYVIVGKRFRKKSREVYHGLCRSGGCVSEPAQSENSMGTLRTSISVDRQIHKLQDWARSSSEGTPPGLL
Briefly: [3H]-bradykinin binding to guinea-pig ileum membranes. As to conditions: test compound at 10^-6 M; [3H]-bradykinin 120 pM; 50 μg ileum membrane protein; 90 min at 20° C.; read-out: Activity (%): percentage inhibition of the binding of [3H]-bradykinin. On the procedure:
The following pharmacological test is used: Ileum segments are isolated from male guinea-pigs [of the Dunkin-Hartley strain (Iffa Credo, l'Arbresle, France)] and ground in the following TES buffer: TES 25 mM, 1,10-phenanthroline 1 mM (pH 6.8), bacitracin 140 μg/ml, BSA 1 g/l. The membranes are then isolated by centrifugation (18,000 rpm; 20 min; 4° C.). The binding studies are carried out in this TES buffer using [^3 H]-bradykinin (120 pM) and 50 μg of membrane protein per test (final volume 500 μl) with an equilibrium time of 90 min at 20° C. The percentage inhibition of the binding of [^3 H]-bradykinin is then determined in the presence of one of the test compounds according to the invention at a concentration of 10^-6 M.
The results obtained from these tests (shown as "activity") are collated in Table I below with reference to the Examples given in the description.
For `Cc1cc(C)c2cccc(OCc3c(Cl)ccc(S(=O)(=O)N4CCC[C@H]4C(=O)N(C)Cc4ccc(C(=N)N)cc4)c3Cl)c2n1` [Example 4, 1-[[3-[(2,4-Dimethylquinolin-8-yl)oxymethyl]-2,4-dichlorophenyl]sulfonyl]-N-methyl-N-[4-(aminoiminomethyl)phenylmethyl]-2(S)-pyrrolidinecarboxamide dihydrochloride], the inhibition at 1 µM was determined as 97.8%. Take `Cc1cc(C)c2cccc(OCc3c(Cl)ccc(S(=O)(=O)N4CCC[C@H]4C(=O)NCc4cccc(C(=N)N)c4)c3Cl)c2n1` [Example 2, 1-[[3-[(2,4-Dimethylquinolin-8-yl)oxymethyl]-2,4-dichlorophenyl]sulfonyl]-N-[3-(aminoiminomethyl)phenylmethyl]-2(S)-pyrrolidinecarboxamide dihydrochloride]: the inhibition at 1 µM turned out to be 100%.

On to `Cc1ccc2cccc(OCc3c(Cl)ccc(S(=O)(=O)N4CCC[C@H]4C(=O)N4CCN(C(=O)COc5ccc(C(=N)N)cc5)CC4)c3Cl)c2n1` [Example 22, 1-[[3-[(2-Dimethylquinolin-8-yl)oxymethyl]-2,4-dichlorophenyl]sulfonyl]-2(S)-[4-[2-[4-(aminoiminomethyl)phenoxyl-1-oxoethyl]piperazin-1-yl]carbonyl]pyrrolidine dihydrochloride], for which the inhibition at 1 µM was 100%. Under `Cc1ccc2cccc(OCc3c(Cl)ccc(S(=O)(=O)N4CCC[C@H]4C(=O)NCc4ccc(C(=N)N)cc4)c3Cl)c2n1` [Example 8, 1-[[3-[(2-Methylquinolin-8-yl)oxymethyl]-2,4-dichlorophenyl]sulfonyl]-N-[4-(aminoiminomethyl)phenylmethyl]-2(S)-pyrrolidinecarboxamide dihydrochloride] stands 96.6%. Under `Cc1cc(C)c2cccc(OCc3c(Cl)ccc(S(=O)(=O)N4CCC[C@H]4C(=O)NC4CCN(C(=O)COc5ccc(C(=N)N)cc5)CC4)c3Cl)c2n1` [Example 28] stands 98%; under `Cc1cc(C)c2cccc(OCc3c(Cl)ccc(S(=O)(=O)N4CCC[C@H]4C(=O)NCc4ccc(C(=N)N)cc4)c3Cl)c2n1` [Example 6, 1-[[3-[(2,4-Dimethylquinolin-8-yl)oxymethyl]-2,4-dichlorophenyl]sulfonyl]-N-[4-(aminoiminomethyl)phenylmethyl]-2(S)-pyrrolidinecarboxamide bis(methanesulfonate)], 100%; under `Cc1cc(C)c2cccc(OCc3c(Cl)ccc(S(=O)(=O)N4CCC[C@H]4C(=O)NC4CCN(C(=O)c5ccc(C(=N)N)cc5)CC4)c3Cl)c2n1` [Example 26, 1-[[3-[(2,4-Dimethylquinolin-8-yl)oxymethyl]-2,4-dichlorophenyl]sulfonyl]-N-[1-[4-(aminoiminomethyl)benzoyl]piperidin-4-yl]-2(S)-pyrrolidinecarboxamide bis(methanesulfonate)], 100%.

For the compound `Cc1cc(C)c2cccc(OCc3c(Cl)ccc(S(=O)(=O)N4CCC[C@H]4C(=O)N4CCN(C(=O)COc5ccc(C(=N)N)cc5)CC4)c3Cl)c2n1` [Example 16, 1-[[3-[(2,4-Dimethylquinolin-8-yl)oxymethyl]-2,4-dichlorophenyl]sulfonyl]-2(S)-[[4-[2-[4-(aminoiminomethyl)phenoxyl]-1-oxoethyl]piperazin-1-yl]carbonyl]pyrrolidine dihydrochloride], the inhibition at 1 µM turned out to be 100%. `Cc1ccc2cccc(OCc3c(Cl)ccc(S(=O)(=O)N4CCC[C@H]4C(=O)N4CCN(C(=O)c5ccc(C(=N)N)cc5)CC4)c3Cl)c2n1` [Example 18, 1-[[3-[(2-Methylquinolin-8-yl)oxymethyl]-2,4-dichlorophenyl]sulfonyl]-2(S)-[[4-[4-(aminoiminomethyl)benzoyl]piperazin-1-yl]carbonyl]pyrrolidine dihydrochloride]: the inhibition at 1 µM amounted to 100%. As for `Cc1cc(C)c2cccc(OCc3c(Cl)ccc(S(=O)(=O)N4CCC[C@H]4C(=O)N4CCN(C(=O)c5ccc(C(=N)N)cc5)CC4)c3Cl)c2n1` [Example 12, 1-[[3-[(2,4-Dimethylquinolin-8-yl)oxymethyl]-2,4-dichlorophenyl]sulfonyl]-2(S)-[[4-[4-(aminoiminomethyl)benzoyl]piperazin-1-yl]carbonyl]pyrrolidine dihydrochloride], the figure is 99.3%; as for `Cc1ccc2cccc(OCc3c(Cl)ccc(S(=O)(=O)N4CCC[C@H]4C(=O)Nc4cccc(C(=N)N)c4)c3Cl)c2n1` [Example 10, 1-[[3-[(2-Methylquinolin-8-yl)oxymethyl]-2,4-dichlorophenyl]sulfonyl]-N-[3-(aminoiminomethyl)phenyl]-2(S)-pyrrolidinecarboxamide dihydrochloride], 100%. As for `Cc1cc(C)c2cccc(OCc3c(Cl)ccc(S(=O)(=O)N4CCC[C@H]4C(=O)NCC4CCN(C(=O)COc5ccc(C(=N)N)cc5)CC4)c3Cl)c2n1` [Example 30, 1-[[3-[(2,4-Dimethylquinolin-8-yl)oxymethyl]-2,4-dichlorophenyl]sulfonyl]-N-[[1-[2-[4-(aminoiminomethyl)phenoxy]-1-oxoethyl]piperidin-4-yl]methyl]-2(S)-pyrrolidinecarboxamide bis(methanesulfonate)], the figure is 99.3%; as for `Cc1ccc2cccc(OCc3c(Cl)ccc(S(=O)(=O)N4CCC[C@H]4C(=O)N4CCN(C(=O)Cc5ccc(C(=N)N)cc5)CC4)c3Cl)c2n1` [Example 20, 1-[[3-[(2-Methylquinolin-8-yl)oxymethyl]-2,4-dichlorophenyl]sulfonyl]-2(S)-[[4-[2-[4-(aminoiminomethyl)phenyl-1-oxoethyl]piperazin-1-yl]carbonyl]pyrrolidinedihydrochloride], 100%; as for `Cc1cc(C)c2cccc(OCc3c(Cl)ccc(S(=O)(=O)N4CCC[C@H]4C(=O)N4CCN(C(=O)Cc5ccc(C(=N)N)cc5)CC4)c3Cl)c2n1` [Example 14, 1-[[3-[(2,4-Dimethylquinolin-8-yl)oxymethyl]-2,4-dichlorophenyl]sulfonyl]-(S)-[[4-[2-[4-(aminoiminomethyl)phenyl]-1-oxoethyl]piperazin-1-yl]carbonyl]pyrrolidine dihydrochloride], 100%.

For the compound `Cc1ccc2cccc(OCc3c(Cl)ccc(S(=O)(=O)N4CCC[C@H]4C(=O)NC4CCN(C(=O)c5ccc(C(=N)N)cc5)CC4)c3Cl)c2n1` [Example 24], the inhibition at 1 µM is 98.9%.

Usually inhibition stands for the percentage by which the read-out fell short of the control.
